Paper PMC10712727, “Safety, Tolerability, and Pharmacokinetics of Senaparib, a Novel PARP1/2 Inhibitor, in Chinese Patients With Advanced Solid Tumors: A Phase I Trial” (The Oncologist, 2023)

Test system: BRCA^mut+ tumors
Experiment: Tumor response per RECIST v1.1 (ORR, DCR, DOR, PFS), BRCA^mut+ subgroup
Format: in vivo, human
Conditions: for Patients with reduced tumor size: BRCA^mut+ subgroup; for PFS, Median (95% CI): Kaplan-Meier
Excerpt: The dose-expansion period included 3 populations: dose groups in which at least one patient achieved complete response (CR) or partial response (PR) per RECIST v1.1[16] and 1 dose group higher (evaluated for safety), as well as the dose group at the maximum tolerated dose (MTD)/recommended phase II dose (RP2D). Each of these groups included those patients in the respective dose-escalation group plus a planned additional 10 patients (approximately 20 patients in the MTD/RP2D group) with BRCA^mut+ solid tumors (ovarian, breast, or prostate cancer were preferred, and ovarian cancer could be BRCA wild type). Patients received senaparib monotherapy orally QD or BID (50-mg dose only) over each 3-week cycle until disease progression or unacceptable toxicity.
Safety was assessed by recording the incidence of dose-limiting toxicities (DLTs), and the incidence, nature, severity (graded per National Cancer Institute Common Terminology Criteria for Adverse Events version 4.03 [NCI CTCAE v4.03][18]), and relatedness of treatment-emergent adverse events (TEAEs). DLTs were predefined toxicities (Supplementary Table S2) recorded over the 7 days following the single-dose administration of senaparib and during the first treatment cycle (day 1-day 21) for each dose group in the dose-escalation period only. The MTD was defined as the maximum dose at which ≤1/6 patients experienced a DLT. Senaparib PK parameters were derived from blood samples collected from patients after the single administration, and at regular intervals during the first cycle of the dose-escalation and dose-expansion periods. Plasma concentrations of senaparib were determined using high-performance liquid chromatography-tandem mass spectrometry. Tumor response was assessed every 6 weeks per RECIST v1.1,[16] recording objective response rate (ORR), disease control rate (DCR), duration of response (DOR), and progression-free survival (PFS) by dose level for all patients and for those harboring BRCA^mut+ tumors.
There was no formal sample size calculation based on statistical hypothesis testing for this study; the planned enrolment was approximately 30-60 patients across the dose-escalation and dose-expansion cohorts. The actual number in the dose-escalation cohort was adjusted based on the number of dose cohorts required for the modified Fibonacci dose-escalation design and the determined MTD. Definitions for all analysis populations (safety, DLT, PK, and efficacy [intent-to-treat, ITT]) are provided in Supplementary Table S2. No statistical tests were performed; patient demographic and baseline characteristics, safety/tolerability, PK parameters, and efficacy were evaluated descriptively. ORR and DCR and their 95% CIs were calculated for each group using the exact probability method. Kaplan-Meier statistics were used to estimate DOR and PFS, and their 95% CIs for each dose group separately. Dose linearity was explored based on the single-dose data of area under the time-concentration curve (AUC) and maximum plasma concentration (Cmax) using the power model (Y = α × dose β) for the dose range 2-80 mg on a log-transformed scale. The following criterion was used to determine whether dose proportionality was met: if the (2-sided) 90% CI for β was wholly contained within the interval (1 + log(0.5)/log(r), 1 + log(2)/log(r)), then dose proportionality was supported. Here, r was defined as the ratio of the highest to lowest dose. All data analyses were carried out using SAS EG7.1 or higher or (for PK parameters) WinNonlin 7.0 or higher.

[1] = BRCA^mut+, 26 evaluable for tumor response
[2] = BRCA^mut+, 5 mg QD, PFS evaluable n 2
[3] = BRCA^mut+, 10 mg QD, PFS evaluable n 1
[4] = BRCA^mut+, 10 mg QD, evaluable n 1
[5] = BRCA^mut+, 20 mg QD, PFS evaluable n 3
[6] = BRCA^mut+, 20 mg QD, evaluable n 2
[7] = BRCA^mut+, 60 mg QD, PFS evaluable n 4
[8] = BRCA^mut+, 60 mg QD, evaluable n 4
[9] = BRCA^mut+, 80 mg QD, DOR evaluable n 3
[10] = BRCA^mut+, 80 mg QD, PFS evaluable n 6
[11] = BRCA^mut+, 80 mg QD, evaluable n 6
[12] = BRCA^mut+, 100 mg QD, DOR evaluable n 2
[13] = BRCA^mut+, 100 mg QD, PFS evaluable n 13
[14] = BRCA^mut+, 100 mg QD, evaluable n 11
[15] = BRCA^mut+, 120 mg QD, PFS evaluable n 2
[16] = BRCA^mut+, 120 mg QD, evaluable n 2
[17] = BRCA^mut+, Total, DOR evaluable n 7
[18] = BRCA^mut+, Total, PFS evaluable n 32
[19] = BRCA^mut+, Total, evaluable n 26

O=C(c1cc(Cn2c(=O)[nH]c(=O)c3c(F)cccc32)ccc1F)N1CCN(c2ncccn2)CC1 [Senaparib]
Median DOR (BRCA^mut+ patients, 95% CI, 39-NR): 169 days
Median PFS (BRCA^mut+ patients, 95% CI, 79-464): 215 days
Patients with reduced tumor size (non-ovarian (3/10)): 30.0%
Patients with reduced tumor size (ovarian cancer (10/16)): 62.5%
DCR [1]: 73.1%
ORR [1]: 26.9%
DOR: Events (BRCA^mut+, 2 mg QD, DOR evaluable n 0): 0 n (%)
PFS: Events (BRCA^mut+, 2 mg QD, PFS evaluable n 0): 0 (0) n (%)
DOR: Events (BRCA^mut+, 5 mg QD, DOR evaluable n 0): 0 n (%)
PFS: Events [2]: 2 (100) n (%)
PFS, Median (95% CI) [2]: 254.5 (45-464) days
DOR: Events (BRCA^mut+, 10 mg QD, DOR evaluable n 0): 0 n (%)
PFS: Events [3]: 1 (100) n (%)
PFS, Median (95% CI) [3]: 49 (49-49) days
Complete response [4]: 0 n (%)
DCR (complete response+partial response+stable disease) [4]: 0 n (%)
ORR (complete response+partial response) [4]: 0 (0) n (%)
Partial response [4]: 0 n (%)
Stable disease (≥42 days from cycle 1 day 1) [4]: 0 n (%)
DOR: Events (BRCA^mut+, 20 mg QD, DOR evaluable n 1): 0 n (%)
PFS: Events [5]: 1 (33.3) n (%)
PFS, Median (95% CI) [5]: – (39-NR)
Complete response [6]: 0 n (%)
DCR (complete response+partial response+stable disease) [6]: 1 (50.0) n (%)
ORR (complete response+partial response) [6]: 1 (50.0) n (%)
Partial response [6]: 1 (50.0) n (%)
Stable disease (≥42 days from cycle 1 day 1) [6]: 0 n (%)
DOR: Events (BRCA^mut+, 40 mg QD, DOR evaluable n 0): 0 n (%)
DOR: Events (BRCA^mut+, 50 mg BID, DOR evaluable n 0): 0 n (%)
PFS: Events (BRCA^mut+, 50 mg BID, PFS evaluable n 1): 0 (0) n (%)
DOR: Events (BRCA^mut+, 60 mg QD, DOR evaluable n 1): 0 n (%)
PFS: Events [7]: 2 (50.0) n (%)
PFS, Median (95% CI) [7]: 255 (127-NR) days
Complete response [8]: 0 n (%)
DCR (complete response+partial response+stable disease) [8]: 4 (100) n (%)
ORR (complete response+partial response) [8]: 1 (25.0) n (%)
Partial response [8]: 1 (25.0) n (%)
Stable disease (≥42 days from cycle 1 day 1) [8]: 3 (75.0) n (%)
DOR, Median (95% CI) [9]: 120 (39-169) days
DOR: Events [9]: 3 (100) n (%)
PFS: Events [10]: 5 (83.3) n (%)
PFS, Median (95% CI) [10]: 167 (40-216) days
Complete response [11]: 0 n (%)
DCR (complete response+partial response+stable disease) [11]: 5 (83.3) n (%)
ORR (complete response+partial response) [11]: 3 (50.0) n (%)
Partial response [11]: 3 (50.0) n (%)
Stable disease (≥42 days from cycle 1 day 1) [11]: 2 (33.3) n (%)
DOR, Median (95% CI) [12]: – (169-NR)
DOR: Events [12]: 1 (50.0) n (%)
PFS: Events [13]: 5 (38.5) n (%)
PFS, Median (95% CI) [13]: 289 (42-NR) days
Complete response [14]: 0 n (%)
DCR (complete response+partial response+stable disease) [14]: 8 (72.7) n (%)
ORR (complete response+partial response) [14]: 2 (18.2) n (%)
Partial response [14]: 2 (18.2) n (%)
Stable disease (≥42 days from cycle 1 day 1) [14]: 6 (54.5) n (%)
DOR: Events (BRCA^mut+, 120 mg QD, DOR evaluable n 0): 0 n (%)
PFS: Events [15]: 1 (50.0) n (%)
PFS, Median (95% CI) [15]: – (48-NR)
Complete response [16]: 0 n (%)
DCR (complete response+partial response+stable disease) [16]: 1 (50.0) n (%)
ORR (complete response+partial response) [16]: 0 (0) n (%)
Partial response [16]: 0 n (%)
Stable disease (≥42 days from cycle 1 day 1) [16]: 1 (50.0) n (%)
DOR, Median (95% CI) [17]: 169 (39-NR) days
DOR: Events [17]: 4 (57.1) n (%)
PFS: Events [18]: 17 (53.1) n (%)
PFS, Median (95% CI) [18]: 215 (79-464) days
Complete response [19]: 0 n (%)
DCR (complete response+partial response+stable disease) [19]: 19 (73.1) n (%)
ORR (complete response+partial response) [19]: 7 (26.9) n (%)
Partial response [19]: 7 (26.9) n (%)
Stable disease (≥42 days from cycle 1 day 1) [19]: 12 (46.2) n (%)
